Values joined by “and” are separate entries in the source; they are usually repeats but may differ in a detail not shown here. Equal values may be shown once. Read-outs that look alike come from different tables or passages of the source.
What was measured:
[1] = RNA encapsulation efficacy (EE %) by Quant-IT Ribogreen kit; format: physicochemical; settings: LNP
Protocol: (§1) The LNP size and polydispersity index (PDI), determined by dynamic light scattering (DLS), and zeta potential were measured by a Zetasizer machine (Malvern). RNA concentration and encapsulation efficacy (EE %) were analyzed by the Quant-IT Ribogreen kit by calculating the percentage encapsulation at 100%—(RNA-LNPs/RNA-LNPs with Triton X-100).

injection site skin = assay: In vivo tolerability after intradermal injection: H&E staining of injection site skin; design: species or system C57BL/6J mice; key to Infiltration, mononuclear cells, dermis/subcutaneous, focal, Grade / Edema, subcutaneous, focal, Grade / Erosion, focal, Grade / Skin, Grade: 1==minimal; 2=mild; 3=moderate; 4=marked; 5=severe; N=Normal; NA=Not applicable; —=No data; settings: intradermal 0.15 mg/kg, 72 h, Formulation 001, RNA 331
Protocol: 7-8 week old, female C57BL/6J mice (N=3) were injected with 0.15 mg*kg−1 of RNA-LNIPs encoding for firefly-luciferase by intradermal injection. At 72-hours post injection, injection site skin from each animal was collected in 10% formalin, for H&E staining. PBS group (N=2) as control. (Note: 1==minimal, 2=mild, 3=moderate, 4=marked, 5=severe; N=Normal; NA=Not applicable; —=No data)

Hep G2 cells [2] = assay: In vitro expression: luciferase activity in Hep G2 cells transfected with RNA-LNPs; format: cell-based; settings: 100 ng/mL RNA-LNPs, 72 hours post transfection
Protocol: 2E5 Hep G2 cells were transfected with 100 ng/mL of RNA-LNPs encoding for firefly-luciferase. At 72 hours post transfection, the cells were washed and lysed. The luciferase expression (2-well repeat) was determined in the cell lysates with the luciferase assay reagent kit (Promega), according to the kit protocol, luciferase activity was measured by a luminometer.

C57BL/6J mice [3] = assay: In vivo expression by ID, whole-body/injection site skin/lymph node luminescence; settings: intradermal 0.15 mg/kg, 72 h post injection, female C57BL/6J mice N=3, Formulation 001, RNA 331
Protocol: 7-8 week old, female C57BL/6J mice (N=3) were injected with 0.15 mg*kg−1 of RNA-LNPs encoding for firefly-luciferase by intradermal injection. At 72-hours post injection, animals were intraperitoneally injected with 15 mg/mi of Luciferin substrate and whole-body/injection site skin/lymph node luminescence were determined by a bioluminescent in vivo imaging system (IVIS).

Balb/c mice = assay: In vivo expression by IV, 0.05 mg/kg luciferase RNA-LNPs, IVIS luminescence; settings: female Balb/c mice, 0.05 mg*kg−1 intravenous; for Liver (p/s) (Mean) / Spleen (p/s) (Mean) / Whole body (p/s) (Mean): Formulation No. 001, RNA No. 331, 24-hours post injection
Procedure, shortened: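 IVIS bioluminescence was read after IP luciferin (15 mg/ml): whole-body at 24 and 72 h, or whole-body/liver/spleen at 24 h. Dosing was a single IV injection of 0.05 mg*kg−1 RNA-LNPs encoding firefly luciferase into 7-8 week old female Balb/c mice, N=3.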

Hep G2 cells [4] = assay: In vitro toxicity: Hep G2 cell viability by CellTiter-Glo; format: cell-based; settings: 72 hours post transfection, cell only = 100%
Protocol: 2E5 Hep G2 cells were transfected with 1 μg/mL RNA-LNPs. At 72 hours post transfection, cell viability (2-well repeat) was determined with the CellTiter-Glo® reagent kit, according to the kit protocol, measured by a luminometer. Cell only as control (100%).
The cell viability was calculated according to the following formula: […]

[5] = LNP size and polydispersity index (PDI) by dynamic light scattering (Zetasizer); format: physicochemical; settings: for Size (nm): RNA No. 331
Protocol: as §1

[6] = In vivo lipid metabolism by IV: ionizable lipid concentration in plasma and liver by LC-MS/MS; design: species or system Sprague-Dawley (SD) rats; settings: IV 0.15 mg/kg RNA-LNPs (hEPO), male SD rats, individual animals N=3; for concentration at 6 h: male, Sprague-Dawley, rat, iv, 0.15 mg/kg
Protocol: In Vivo Lipid Metabolism by IV 7-8 week old, male Sprague-Dawley (SD) rats (N=3) were injected with 0.15 mg*kg−1 of RNA-LNPs encoding for hEPO by intravenous injection. At 1-/6-/96-/168-hours post injection, about 100 μL blood will be harvested and immediately added to the EDTAK2 containing tube. Place on wet ice and then centrifuged at 3000 g×5 min to obtain plasma. 30 μL plasma will be aliquoted to the 1.5 mL tubes. At terminal 6-/168-hours post injection, the rats will be euthanized with CO2, hemorrhaged immediately with cardiac puncture, respectively. The livers were harvested, weighed and washed with saline, then put into 50 ml centrifuge tube placed in liquid nitrogen, then transferred into wet ice, and finally stored at −80° C. immediately. Both plasma and liver samples were used for ionizable lipid concentration quantification by LC-MS/MS. The lower limit of quantitation (LLOQ) is 1 ng/mL in plasma or 11 ng/g in liver. BQL—Below the lower limit of quantitation (LLOQ).

IL-6 = assay: In vivo tolerability by IV: serum IL-6 by Luminex; design: species or system C57BL/6J mice; settings: Formulation No. 001, RNA No. 331, male C57BL/6J mice, 1.0 mg*kg/1 intravenous; for IL-6 at 2 h: 2 hours post injection; for IL-6 at 24 h: 24 hours post injection
Procedure, shortened: (§2)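 Male C57BL/6J mice aged 6-8 weeks (N=3) received 1.0 mg*kg−1 firefly-luciferase RNA-LNPs intravenously, with PBS as negative control. Serum taken at 2 and 24 h post-injection was assayed for MCP-1 and IL-6 by Luminex.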

C57BL/6J mice [7] = assay: In vivo expression by IV, 1.0 mg/kg luciferase RNA-LNPs, whole-body and organ IVIS luminescence; settings: Formulation No. 001, RNA No. 331; male C57BL/6J mice, 1.0 mg*kg−1 intravenous, 24-hours post injection
Procedure, shortened: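 Male C57BL/6J mice, 6-8 weeks old (N=3), received 1.0 mg*kg−1 firefly-luciferase RNA-LNPs IV. At 24 h post-dose, luciferin (15 mg/ml) was given IP, and whole-body, liver, spleen, kidney, small and large intestine luminescence was imaged by IVIS.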

MCP-1 = assay: In vivo tolerability by IV: serum MCP-1 by Luminex; design: species or system C57BL/6J mice; settings: Formulation No. 001, RNA No. 331, male C57BL/6J mice, 1.0 mg*kg/1 intravenous; for MCP-1 at 2 h: 2 hours post injection; for MCP-1 at 24 h: 24 hours post injection
Procedure, shortened: as §2

[8] = Formulation No. 001, RNA No. 331
[9] = Formulation No. 010, RNA No. 331
[10] = Formulation No. 001, RNA No. 019 (hEPO)
[11] = liver, 6 h post injection, read-out: Liver (ng/g), ionizable lipid concentration
[12] = Formulation No. 001, RNA No. 331 (firefly-luciferase)
[13] = Formulation No. 001, RNA No. 331, 1 μg/mL RNA-LNPs
[14] = Formulation No. 001 (Ionizable lipid:DSPC:cholesterol:DMG-PEG2000 = 50:10:38.5:1.5, N/P 6)

Row | SMILES | EE (%) [1, 8] [%] | PDI [5, 8] | EE (%) [1, 10] [%] | Plasma (ng/mL), ionizable lipid concentration ([6]; 1 h post injection) | Plasma (ng/mL), ionizable lipid concentration ([6]; 6 h post injection) | concentration at 6 h [6, 11] [ng/g] | IL-6 at 2 h (IL-6) [pg/mL] | IL-6 at 24 h (IL-6) [pg/mL] | In vitro Expression (Mean) (Hep G2 cells [2]; [12]) | Kidney (p/s) (C57BL/6J mice [7]) | Large intestine (p/s) (C57BL/6J mice [7]) | Liver (p/s) (C57BL/6J mice [7]) | Small intestine (p/s) (C57BL/6J mice [7]) | Spleen (p/s) (C57BL/6J mice [7]) | Whole body (p/s) (C57BL/6J mice [7]) | MCP-1 at 2 h (MCP-1) [pg/mL] | MCP-1 at 24 h (MCP-1) [pg/mL] | Liver (p/s) (Mean) (Balb/c mice) | Spleen (p/s) (Mean) (Balb/c mice) | Whole body (p/s) (Mean) (Balb/c mice) | also measured
1 | CCCCC/C=C\C/C=C\CCCCCCCC(=O)NC(COC(=O)NCCN1CCCCCC1)C(=O)OCCCCCC(=O)OCC(CCCCCCCC)CCCCCCCCCC (stereo not shown) [Lipid 729] | 95.62 | 0.08 |  |  |  |  |  |  |  |  |  |  |  |  |  |  |  |  |  |  | EE (%) [1, 9]: 95.94%; Edema, subcutaneous, focal, Grade (injection site skin; per animal): 1 (2×) and —; Erosion, focal, Grade (injection site skin; per animal): —; Infiltration, mononuclear cells, dermis/subcutaneous, focal, Grade (injection site skin; per animal): 1; Total score (injection site skin; sum of lesion grades of the group (N=3)): 5; In vitro Expression (Mean) (Hep G2 cells [2]; Formulation 001, RNA 331): 1.64E+05; In vitro Expression (Mean) (Hep G2 cells [2]; Formulation No. 010, RNA No. 331 (firefly-luciferase)): 3.44E+05; Injection site Skin (p/s) (C57BL/6J mice [3]): 1.33E+07 p/s; Lymph node (p/s) (C57BL/6J mice [3]): 1.42E+06 p/s; Whole body (p/s) (C57BL/6J mice [3]): 6.76E+07 p/s; Whole body at 24 h (p/s) (Mean) (Balb/c mice; Formulation No. 010, RNA No. 331, 24 hours post injection): 1.86E+08 p/s; Whole body at 72 h (p/s) (Mean) (Balb/c mice; Formulation No. 010, RNA No. 331, 72 hours post injection): 4.99E+07 p/s; In vitro cell viability (%) (Mean) (Hep G2 cells [4]; 1 μg/mL RNA-LNPs, Formulation 001, RNA 331): 65.07%; In vitro cell viability (%) (Mean) (Hep G2 cells [4]; Formulation No. 010, RNA No. 331, 1 μg/mL RNA-LNPs): 80.55%; Size [5, 8]: 71.29 nm; Size (nm) ([5]; Formulation No. 010 (Ionizable lipid:DSPC:cholesterol:DSPE-PEG2000 = 38:30:30:2, N/P 6)): 57.90 nm; PDI [5, 9]: 0.10
2 | CCCCCCCCCCCOC(=O)CCCCCOC(=O)C(COC(=O)NCCN1CCCCCC1)NC(=O)OCCCCCCCCOC(=O)C(CCCCCC)CCCCCCCC (stereo not shown) [Lipid 924] | 90.24 | 0.05 | 90.41 | 5572 ng/mL and 3130 ng/mL and 7622 ng/mL | 2.59 ng/mL and 3.41 ng/mL and 298 ng/mL | 1410 | 47.1 | 5.9 | 6.15E+05 | 3.17E+07 | 3.25E+08 | 5.23E+09 | 7.18E+08 | 1.13E+09 | 4.40E+09 | 1390 | 207 | 9.02E+08 | 2.37E+08 | 3.08E+09 | Liver (ng/g), ionizable lipid concentration ([6]; 6 h post injection): 1864 ng/g and 1834 ng/g; In vitro cell viability (%) (Mean) (Hep G2 cells [4]; [13]): 89.34%; Size (nm) [5, 14]: 78.20 nm; PDI [5, 10]: 0.16; Size [5, 10]: 87.04 nm
3 | CCCCCCCCCC(=O)OCCCCCCCOC(=O)C(COC(=O)NCCN1CCCCCC1)NC(=O)OCCCCCCCCOC(=O)C(CCCCCC)CCCCCCCC (stereo not shown) [Lipid 934] | 95.74 | 0.03 | 93.44 | 3316 ng/mL and 5944 ng/mL and 9980 ng/mL | 691 ng/mL and 8.59 ng/mL | 14 | 40.7 | 7.83 | 5.28E+05 | 4.10E+07 | 1.17E+08 | 1.82E+09 | 6.60E+08 | 1.17E+09 | 2.46E+09 | 1360 | 229 | 6.73E+08 | 2.04E+08 | 1.87E+09 | In vitro cell viability (%) (Mean) (Hep G2 cells [4]; [13]): 94.29%; Size (nm) [5, 14]: 70.72 nm; PDI [5, 10]: 0.08; Size [5, 10]: 70.30 nm
4 | CCCCC/C=C\CCOC(=O)CCCCCOC(=O)C(COC(=O)NCCN1CCCCCC1)NC(=O)OCCCCCCCCOC(=O)C(CCCCCC)CCCCCCCC (stereo not shown) [Lipid 955] | 91.27 | 0.03 | 93.99 | 6059 ng/mL and 23590 ng/mL and 15983 ng/mL | 11.9 ng/mL and 22 ng/mL | 668 | 1140 | 7.13 | 2.53E+05 | 4.80E+07 | 3.44E+08 | 1.98E+09 | 6.59E+08 | 2.12E+09 | 4.06E+09 | 3350 | 580 | 7.00E+08 | 9.11E+07 | 2.15E+09 | Liver (ng/g), ionizable lipid concentration ([6]; 6 h post injection): 703 ng/g and 396 ng/g; concentration at 6 h ([6]; plasma, 6 h post injection, read-out: Plasma (ng/mL), ionizable lipid concentration): 17 ng/mL; In vitro cell viability (%) (Mean) (Hep G2 cells [4]; [13]): 95.28%; Size (nm) [5, 14]: 81.86 nm; PDI [5, 10]: 0.14; Size [5, 10]: 90.32 nm

Reference: patent US20260200849A1, “CATIONIC LIPIDS AND PREPARATION METHOD THEREOF” (RiboX Therapeutics HK Limited, priority 2024, published 2026)
